A value given as a limit tells only on which side of the number the result lay.

One data set relates to BaF3. Briefly: Antiproliferative activity against mouse BaF3 cells harboring del19/T790M/C797S mutant assessed as inhibition of cell proliferation. It is filed as functional, cell-based.
Data set [1] has as its system PC-9. Briefly: Antiproliferative activity against human PC-9 cells harboring EGFR del19/T790M/C797S mutant assessed as inhibition of cell proliferation. It is filed as functional, cell-based.
Data set [2] is described as follows: Oral bioavailability in CD-1 mouse at 10 mg/kg. To be noted: in vivo. It is filed as ADME, organism-based.
The species named for data set [3] is Homo sapiens. Briefly: Selectivity ratio of IC50 for inhibition of wild type EGFR (unknown origin) to IC50 for inhibition of EGFR L858R/T790M mutant (unknown origin).
For data set [4], the species on record is Homo sapiens. In words: Selectivity ratio of IC50 for inhibition of wild type EGFR (unknown origin) to IC50 for inhibition of EGFR del19/T790M/C797S mutant (unknown origin).
For data set [5], the target named is Epidermal growth factor receptor (Homo sapiens, UniProt P00533, L858R/T790M). Briefly: Inhibition of EGFR L858R/T790M mutant (unknown origin).
The species named for data set [6] is Homo sapiens. Briefly: Selectivity ratio of IC50 for inhibition of wild type EGFR (unknown origin) to IC50 for inhibition of EGFR L858R mutant (unknown origin).
Data set [7] can be described thus: Clearance in CD-1 mouse at 2 mg/kg, iv. The conditions noted are these: in vivo. It is filed as ADME, organism-based.
Data set [8] addresses Epidermal growth factor receptor (Homo sapiens, UniProt P00533, L858R). In words: Inhibition of EGFR L858R mutant (unknown origin).
Data set [9] is filed under the species Homo sapiens. Briefly: Selectivity ratio of IC50 for inhibition of wild type EGFR (unknown origin) to IC50 for inhibition of EGFR del19 mutant (unknown origin).
For data set [10], the species on record is Homo sapiens. In words: Selectivity ratio of IC50 for inhibition of wild type EGFR (unknown origin) to IC50 for inhibition of EGFR L858R/T790M/C797S mutant (unknown origin).
Data set [11] deals with Epidermal growth factor receptor (Homo sapiens, UniProt P00533, C797S/L858R/T790M). Briefly: Inhibition of EGFR L858R/T790M/C797S mutant (unknown origin).
Epidermal growth factor receptor (Homo sapiens, UniProt P00533, C797S/L858R/T790M), sequence (P00533 25-1210 T790M/C797S/L858R limits assumed): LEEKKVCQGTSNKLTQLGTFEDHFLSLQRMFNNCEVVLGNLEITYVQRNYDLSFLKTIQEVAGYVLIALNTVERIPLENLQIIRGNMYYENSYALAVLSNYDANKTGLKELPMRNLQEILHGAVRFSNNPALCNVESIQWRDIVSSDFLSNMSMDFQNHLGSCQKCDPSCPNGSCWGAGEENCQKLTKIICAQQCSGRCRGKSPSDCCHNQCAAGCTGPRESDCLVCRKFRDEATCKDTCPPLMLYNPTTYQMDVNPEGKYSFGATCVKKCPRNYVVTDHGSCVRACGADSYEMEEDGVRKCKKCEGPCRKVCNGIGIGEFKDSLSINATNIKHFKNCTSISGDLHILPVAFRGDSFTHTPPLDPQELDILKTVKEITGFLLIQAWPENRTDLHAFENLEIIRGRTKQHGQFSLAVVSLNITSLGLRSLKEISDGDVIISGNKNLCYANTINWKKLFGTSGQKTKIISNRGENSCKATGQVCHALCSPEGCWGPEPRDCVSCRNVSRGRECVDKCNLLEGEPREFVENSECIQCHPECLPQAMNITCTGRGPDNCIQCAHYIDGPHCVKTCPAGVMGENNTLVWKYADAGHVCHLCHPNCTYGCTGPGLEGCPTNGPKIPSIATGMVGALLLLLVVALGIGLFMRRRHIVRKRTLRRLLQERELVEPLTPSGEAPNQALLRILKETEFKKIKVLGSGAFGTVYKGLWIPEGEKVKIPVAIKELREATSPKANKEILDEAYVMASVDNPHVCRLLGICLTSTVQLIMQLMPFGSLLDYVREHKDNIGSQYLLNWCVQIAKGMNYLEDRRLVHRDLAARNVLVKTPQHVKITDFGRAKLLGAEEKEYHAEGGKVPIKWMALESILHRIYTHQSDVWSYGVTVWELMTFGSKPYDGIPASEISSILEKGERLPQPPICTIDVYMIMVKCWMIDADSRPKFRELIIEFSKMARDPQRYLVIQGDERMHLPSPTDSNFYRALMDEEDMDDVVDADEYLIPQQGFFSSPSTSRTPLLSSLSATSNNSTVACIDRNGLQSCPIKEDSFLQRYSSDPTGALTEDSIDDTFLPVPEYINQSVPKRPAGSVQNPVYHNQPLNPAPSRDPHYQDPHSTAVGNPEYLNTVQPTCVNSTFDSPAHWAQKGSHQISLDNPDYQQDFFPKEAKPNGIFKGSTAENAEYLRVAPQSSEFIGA
Data set [12] concerns the target Epidermal growth factor receptor (Homo sapiens, UniProt P00533, C797S/EX19DEL/T790M). In words: Inhibition of EGFR del19/T790M/C797S mutant (unknown origin).
The species named for data set [13] is Homo sapiens. In words: Selectivity ratio of IC50 for inhibition of wild type EGFR (unknown origin) to IC50 for inhibition of EGFR del19/T790M mutant (unknown origin).
The nature of data set [14]: Tmax in CD-1 mouse at 10 mg/kg, po. The data set is classed as ADME, organism-based. To be noted: in vivo.
Data set [15] is described as follows: AUC (0 to last) in CD-1 mouse at 10 mg/kg, po. It is filed as ADME, organism-based. Also on record: time 0 - last, dose 10 mg/kg, route po. The conditions noted are these: in vivo.
Data set [16] addresses Epidermal growth factor receptor (Homo sapiens, UniProt P00533, EX19DEL). Briefly: Inhibition of EGFR del19 mutant (unknown origin).
Data set [17] concerns the target Epidermal growth factor receptor (Homo sapiens, UniProt P00533, EX19DEL/T790M). Briefly: Inhibition of EGFR del19/T790M mutant (unknown origin).
Data set [18] can be described thus: Cmax in CD-1 mouse at 10 mg/kg, po. It is filed as ADME, organism-based. Set-up: dose 10 mg/kg, route po. To be noted: in vivo.
Data set [19] in a line: Volume of distribution at steady state in CD-1 mouse at 2 mg/kg, iv. The data set is classed as ADME, organism-based. The conditions noted are these: in vivo, read-out: Vdss.
A short description of data set [20]: AUC (0 to last) in CD-1 mouse at 2 mg/kg, iv. The data set is classed as ADME, organism-based. Also on record: time 0 - last, dose 2 mg/kg, route iv. To be noted: in vivo.
For data set [21], the target named is Epidermal growth factor receptor (Homo sapiens, UniProt P00533). Briefly: Inhibition of wild type EGFR (unknown origin).
Epidermal growth factor receptor (Homo sapiens, UniProt P00533), sequence (P00533 whole entry): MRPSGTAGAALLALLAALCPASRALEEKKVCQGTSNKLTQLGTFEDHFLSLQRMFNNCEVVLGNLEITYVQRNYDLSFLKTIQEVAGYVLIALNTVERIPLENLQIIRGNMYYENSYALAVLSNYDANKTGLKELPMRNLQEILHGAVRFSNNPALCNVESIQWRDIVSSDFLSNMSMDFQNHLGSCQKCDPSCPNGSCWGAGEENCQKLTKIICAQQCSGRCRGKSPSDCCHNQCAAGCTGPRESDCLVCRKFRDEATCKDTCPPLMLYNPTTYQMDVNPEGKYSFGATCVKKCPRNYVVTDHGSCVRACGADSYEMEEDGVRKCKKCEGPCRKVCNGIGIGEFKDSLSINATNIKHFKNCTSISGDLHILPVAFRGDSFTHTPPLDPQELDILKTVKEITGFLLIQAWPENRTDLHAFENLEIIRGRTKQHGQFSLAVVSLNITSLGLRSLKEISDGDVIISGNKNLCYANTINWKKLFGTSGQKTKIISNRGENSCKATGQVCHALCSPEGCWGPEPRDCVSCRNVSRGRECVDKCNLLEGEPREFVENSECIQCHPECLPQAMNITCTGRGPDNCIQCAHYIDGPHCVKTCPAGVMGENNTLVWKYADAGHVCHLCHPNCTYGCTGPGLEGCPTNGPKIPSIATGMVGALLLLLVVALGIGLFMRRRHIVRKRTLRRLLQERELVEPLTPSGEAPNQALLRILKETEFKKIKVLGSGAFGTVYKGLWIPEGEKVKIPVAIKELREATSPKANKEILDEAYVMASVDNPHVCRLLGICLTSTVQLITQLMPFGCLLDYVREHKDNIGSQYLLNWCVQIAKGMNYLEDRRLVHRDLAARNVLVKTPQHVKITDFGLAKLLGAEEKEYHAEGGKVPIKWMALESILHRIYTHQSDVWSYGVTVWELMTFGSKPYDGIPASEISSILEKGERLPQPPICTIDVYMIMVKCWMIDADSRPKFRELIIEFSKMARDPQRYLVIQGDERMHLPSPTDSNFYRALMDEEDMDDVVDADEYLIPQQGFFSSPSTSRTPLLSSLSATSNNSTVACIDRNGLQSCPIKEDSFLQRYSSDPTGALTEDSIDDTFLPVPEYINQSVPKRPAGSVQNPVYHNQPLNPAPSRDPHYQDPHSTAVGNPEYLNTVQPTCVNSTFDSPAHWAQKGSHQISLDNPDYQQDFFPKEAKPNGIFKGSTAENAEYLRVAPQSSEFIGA
Data set [22] can be described thus: Half-life in CD-1 mouse at 2 mg/kg, iv. It is filed as ADME, organism-based. To be noted: in vivo.
Data set [23] deals with PC-9. In words: cells. The conditions noted are these: Homo sapiens, PC-9, 72 h.

Epidermal growth factor receptor (Homo sapiens, UniProt P00533, C797S/EX19DEL/T790M), sequence (P00533 whole entry, looked up, stated change not applied): as the sequence (P00533 whole entry) above
Epidermal growth factor receptor (Homo sapiens, UniProt P00533, EX19DEL/T790M), sequence (P00533 whole entry, looked up, stated change not applied): as the sequence (P00533 whole entry) above

`CCc1cc(Nc2ncc(Br)c(Nc3ccc4c(ccc5ccccc54)c3P(C)(C)=O)n2)c(OC)cc1N1CCC(N2CCN(C)CC2)CC1`: the IC50 with BaF3 and with PC-9 [1] was above 1000 nM throughout.

Regarding `CCc1cc(Nc2ncc(Br)c(Nc3ccc4nccnc4c3P(C)(C)=O)n2)c(OC)cc1N1CCC(N(C)CCS(C)(=O)=O)CC1`, the IC50 in the data set on PC-9 [1] was 127 nM.

With `CCc1cc(Nc2ncc(Br)c(Nc3cc4c5c(cccc5c3P(C)(C)=O)CC4)n2)c(OC)cc1N1CCC(N2CCN(C)CC2)CC1`, the IC50 in the data set with BaF3 and in the data set with PC-9 [1] was above 1000 nM in each case.

In turn, `CCc1cc(Nc2ncc(Br)c(Nc3ccc4nccnc4c3P(C)(C)=O)n2)c(OC)cc1N1CCC(N2CCN(CCS(C)(=O)=O)CC2)CC1` showed a bioavailability in data set [2] of 48.9%. Besides, the Ratio IC50 in the data set listed under Homo sapiens [3] was determined as 43; in the data set filed under Homo sapiens [4], 54; in the data set filed under Homo sapiens [6], 3.4; in the data set filed under Homo sapiens [9], 11; in the data set listed under Homo sapiens [10], 41; in the data set listed under Homo sapiens [13] it was 81. Also, the half-inhibitory concentration (IC50) in [5] worked out at 0.2 nM; with BaF3, 1.53 nM; in data set [8], 3.1 nM; in data set [11], 0.3 nM; in the data set on PC-9 [1] it was 66.7 nM; in data set [12], 0.2 nM. The results for the IC50 in [16], in data set [17] and in data set [21] were 0.9 nM, 0.1 nM and 10.4 nM, respectively. Also, the clearance in data set [7] was found to be 2.4 mL/min/kg. For the same compound, the Tmax in [14] was found to be 0.5 h. The AUC(0-t) in data set [15] came to 33800 ng·h/mL. The same compound showed a Cmax in [18] of 6600 ng/mL. Moreover, the Vd in data set [19] worked out at 0.7 L/kg. For the same compound, the AUClast in data set [20] turned out to be 13820 ng·h/mL. The half-life in data set [22] was 3.3 h.

Take `COc1cc(N2CCC(N3CCN(C)CC3)CC2)c(-c2cnn(C)c2)cc1Nc1ncc(Br)c(Nc2cc(F)c(C)c(C)c2P(C)(C)=O)n1`: the IC50 with BaF3 and with PC-9 [1] was above 1000 nM throughout.

In the case of `COc1cc(N2CCC(N3CCN(C)CC3)CC2)c(-c2cnn(C)c2)cc1Nc1ncc(Br)c(Nc2cc(C)c(C)c(C)c2P(C)(C)=O)n1`, the IC50 in the data set with BaF3 came to 3.6 nM; with PC-9 [1], 67.4 nM.

In the case of `COc1cc(N2CCC(N3CCN(C)CC3)CC2)ccc1Nc1ncc(Br)c(Nc2cc3c4c(cccc4c2P(C)(C)=O)CC3)n1`, the IC50 in the data set with BaF3 and in the data set with PC-9 [1] was above 1000 nM in each case.

For the compound `CCc1cc(Nc2ncc(Br)c(Nc3ccc4nc5c(nc4c3P(C)(C)=O)CCCC5)n2)c(OC)cc1N1CCC(N2CCN(C)CC2)CC1`, the IC50 in the data set on BaF3 stood at 37.4 nM; in the data set on PC-9 [1], 217 nM.

`CCc1cc(Nc2ncc(Br)c(Nc3cc4c5c(cccc5c3P(C)(C)=O)COC4)n2)c(OC)cc1N1CCC(N2CCN(C)CC2)CC1`: the IC50 in the data set with BaF3 and with PC-9 [1] was above 1000 nM each time.

Take `COc1cc(N2CCC(N3CCN(C)CC3)CC2)ccc1Nc1ncc(Br)c(Nc2ccc3c(ccc4ccccc43)c2P(C)(C)=O)n1`: the IC50 in the data set with BaF3 and in the data set with PC-9 [1] was above 1000 nM each time.

Turning to `COc1cc(N2CCC(N3CCN(C)CC3)CC2)ccc1Nc1ncc(Br)c(Nc2cc3c4c(cccc4c2P(C)(C)=O)COC3)n1`, the IC50 in the data set with BaF3 and in the data set on PC-9 [1] was above 1000 nM in each case.

In the case of `CCc1cc(Nc2ncc(Br)c(Nc3ccc(C4CC4)cc3P(C)(C)=O)n2)c(OC)cc1N1CCC(N2CCN(CCS(C)(=O)=O)CC2)CC1`, the IC50 in the data set with BaF3 and in the data set with PC-9 [1] was above 1000 nM in each case.

`COc1cc(N2CCC(N3CCN(C)CC3)CC2)c(-c2cnn(C3CC3)c2)cc1Nc1ncc(Br)c(Nc2ccc(C)c(C)c2P(C)(C)=O)n1`: the IC50 in the data set with BaF3 and in the data set on PC-9 [1] was above 1000 nM each time.

`COc1cc(N2CCC(N3CCN(C)CC3)CC2)ccc1Nc1ncc(Cl)c(Nc2ccccc2P(C)(C)=O)n1` [BRIGATINIB] had an IC50 with PC-9 [23] of 599 nM.

Regarding `CCc1cc(Nc2ncc(Br)c(Nc3ccc4nccnc4c3P(C)(C)=O)n2)c(OC)cc1N1CCC(N2CCN(CCSC)CC2)CC1`, the IC50 in the data set on BaF3 amounted to 3.87 nM; with PC-9 [1] it was 148 nM.

With `COc1cc(N2CCC(N3CCN(CCS(C)(=O)=O)CC3)CC2)c(-c2cnn(C)c2)cc1Nc1ncc(Br)c(Nc2ccc(C)c(C)c2P(C)(C)=O)n1`, the IC50 in the data set on BaF3 and in the data set with PC-9 [1] was above 1000 nM throughout.

By IC50 is commonly meant the concentration at which inhibition is half-maximal. As a reminder, the bioavailability is the share of a dose that reaches the circulation, judged against a reference dose that is usually intravenous. Read a high bioavailability as good availability. As a reminder, the clearance is the rate of elimination divided by the concentration. Read a high clearance as a high capacity for elimination. By Tmax is commonly meant the time from dosing to the highest level. As a reminder, the AUC(0-t) is exposure summed from dosing to a finite time, without extrapolation to infinity. High values mean more exposure, low ones less exposure. One may read the Cmax as the peak of the concentration-time curve. Usually half-life stands for the time needed for the level to fall by half in the phase considered. Lower therefore signals fast loss.

These data come from ChEMBL document CHEMBL5113388 (Bioorg Med Chem Lett, 2022).
